Source: ChEMBL document CHEMBL4308841, “Synthesis, in vitro antiproliferative activity, and kinase inhibitory effects of pyrazole-containing diarylureas and diarylamides” (Eur J Med Chem, 2018)

test system: SNB-75; assay: Growth inhibition of human SNB75 cells assessed as cell growth at 0.1 uM incubated for 48 hrs by sulforhodamine B assay relative to control; assay type: functional; conditions: SNB-75, 48 h, read-out: Activity

SMILES	growth at 0.1 µM [%]
COc1cc(Cl)cc(-c2nn(-c3cccc(NC(=O)c4cccc(C(F)(F)F)c4)c3)cc2-c2ccncc2)c1	54

test system: IGROV-1; assay: Growth inhibition of human IGROV1 cells assessed as cell growth at 100 uM incubated for 48 hrs by sulforhodamine B assay relative to control; assay type: functional; conditions: IGROV-1, 48 h, read-out: Activity

SMILES	growth at 100 µM [%]
COc1cc(Cl)cc(-c2nn(-c3cccc(NC(=O)c4cccc(C(F)(F)F)c4)c3)cc2-c2ccncc2)c1	70

test system: MDA-MB-468; assay: Growth inhibition of human MDA-MB-468 cells assessed as cell growth at 0.1 uM incubated for 48 hrs by sulforhodamine B assay relative to control; assay type: functional; conditions: MDA-MB-468, 48 h, read-out: Activity

SMILES	growth at 0.1 µM [%]
COc1cc(Cl)cc(-c2nn(-c3cccc(NC(=O)c4cccc(C(F)(F)F)c4)c3)cc2-c2ccncc2)c1	85

test system: OVCAR-3; assay: Growth inhibition of human OVCAR3 cells assessed as cell growth at 0.01 uM incubated for 48 hrs by sulforhodamine B assay relative to control; assay type: functional; conditions: OVCAR-3, 48 h, read-out: Activity

SMILES	growth at 0.01 µM [%]
COc1cc(Cl)cc(-c2nn(-c3cccc(NC(=O)c4cccc(C(F)(F)F)c4)c3)cc2-c2ccncc2)c1	105

test system: OVCAR-4; assay: Growth inhibition of human OVCAR4 cells assessed as cell growth at 1 uM incubated for 48 hrs by sulforhodamine B assay relative to control; assay type: functional; conditions: OVCAR-4, 48 h, read-out: Activity

SMILES	growth at 1 µM [%]
COc1cc(Cl)cc(-c2nn(-c3cccc(NC(=O)c4cccc(C(F)(F)F)c4)c3)cc2-c2ccncc2)c1	97

test system: Malme-3M; assay: Growth inhibition of human MALME-3M cells assessed as cell growth at 0.01 uM incubated for 48 hrs by sulforhodamine B assay relative to control; assay type: functional; conditions: read-out: Activity

SMILES	growth at 0.01 µM [%]
COc1cc(Cl)cc(-c2nn(-c3cccc(NC(=O)c4cccc(C(F)(F)F)c4)c3)cc2-c2ccncc2)c1	58

test system: SK-MEL-28; assay: Growth inhibition of human SK-MEL-28 cells assessed as cell growth at 0.1 uM incubated for 48 hrs by sulforhodamine B assay relative to control; assay type: functional; conditions: SK-MEL-28, 48 h, read-out: Activity

SMILES	growth at 0.1 µM [%]
COc1cc(Cl)cc(-c2nn(-c3cccc(NC(=O)c4cccc(C(F)(F)F)c4)c3)cc2-c2ccncc2)c1	97

test system: SK-OV-3; assay: Growth inhibition of human SKOV3 cells assessed as cell growth at 0.1 uM incubated for 48 hrs by sulforhodamine B assay relative to control; assay type: functional; conditions: SK-OV-3, 48 h, read-out: Activity

SMILES	growth at 0.1 µM [%]
COc1cc(Cl)cc(-c2nn(-c3cccc(NC(=O)c4cccc(C(F)(F)F)c4)c3)cc2-c2ccncc2)c1	105

test system: HCC 2998; assay: Growth inhibition of human HCC2998 cells assessed as cell growth at 1 uM incubated for 48 hrs by sulforhodamine B assay relative to control; assay type: functional; conditions: HCC 2998, 48 h, read-out: Activity

SMILES	growth at 1 µM [%]
COc1cc(Cl)cc(-c2nn(-c3cccc(NC(=O)c4cccc(C(F)(F)F)c4)c3)cc2-c2ccncc2)c1	103

test system: SK-MEL-2; assay: Growth inhibition of human SK-MEL-2 cells incubated for 48 hrs by sulforhodamine B assay; assay type: functional, cell-based; conditions: SK-MEL-2, 48 h, read-out: GI50

SMILES	GI50 [µM]
COc1cc(Cl)cc(-c2nn(-c3cccc(NC(=O)c4cccc(C(F)(F)F)c4)c3)cc2-c2ccncc2)c1	0.78

same assay, conditions: SK-MEL-2, 48 h, read-out: LC50 (the source's name)

SMILES	CC50 [µM]
COc1cc(Cl)cc(-c2nn(-c3cccc(NC(=O)c4cccc(C(F)(F)F)c4)c3)cc2-c2ccncc2)c1	> 100

same assay, conditions: SK-MEL-2, 48 h, read-out: TGI

SMILES	TGI [µM]
COc1cc(Cl)cc(-c2nn(-c3cccc(NC(=O)c4cccc(C(F)(F)F)c4)c3)cc2-c2ccncc2)c1	> 100

same assay, conditions: SK-MEL-2, 48 h, read-out: pGI50 (converted)

SMILES	GI50 [µM]
COc1cc(Cl)cc(-c2nn(-c3cccc(NC(=O)c4cccc(C(F)(F)F)c4)c3)cc2-c2ccncc2)c1	6.76

same assay, conditions: SK-MEL-2, 48 h, read-out: pLC50 (the source's name) (converted)

SMILES	CC50 [µM]
COc1cc(Cl)cc(-c2nn(-c3cccc(NC(=O)c4cccc(C(F)(F)F)c4)c3)cc2-c2ccncc2)c1	> 100

same assay, conditions: SK-MEL-2, 48 h, read-out: pTGI (converted)

SMILES	TGI [µM]
COc1cc(Cl)cc(-c2nn(-c3cccc(NC(=O)c4cccc(C(F)(F)F)c4)c3)cc2-c2ccncc2)c1	> 100

test system: SK-MEL-28; assay: Growth inhibition of human SK-MEL-28 cells incubated for 48 hrs by sulforhodamine B assay; assay type: functional, cell-based; conditions: SK-MEL-28, 48 h, read-out: GI50

SMILES	GI50 [µM]
COc1cc(Cl)cc(-c2nn(-c3cccc(NC(=O)c4cccc(C(F)(F)F)c4)c3)cc2-c2ccncc2)c1	> 100

same assay, conditions: SK-MEL-28, 48 h, read-out: LC50 (the source's name)

SMILES	CC50 [µM]
COc1cc(Cl)cc(-c2nn(-c3cccc(NC(=O)c4cccc(C(F)(F)F)c4)c3)cc2-c2ccncc2)c1	> 100

same assay, conditions: SK-MEL-28, 48 h, read-out: TGI

SMILES	TGI [µM]
COc1cc(Cl)cc(-c2nn(-c3cccc(NC(=O)c4cccc(C(F)(F)F)c4)c3)cc2-c2ccncc2)c1	> 100

same assay, conditions: SK-MEL-28, 48 h, read-out: pGI50 (converted)

SMILES	GI50 [µM]
COc1cc(Cl)cc(-c2nn(-c3cccc(NC(=O)c4cccc(C(F)(F)F)c4)c3)cc2-c2ccncc2)c1	> 100

same assay, conditions: SK-MEL-28, 48 h, read-out: pLC50 (the source's name) (converted)

SMILES	CC50 [µM]
COc1cc(Cl)cc(-c2nn(-c3cccc(NC(=O)c4cccc(C(F)(F)F)c4)c3)cc2-c2ccncc2)c1	> 100

same assay, conditions: SK-MEL-28, 48 h, read-out: pTGI (converted)

SMILES	TGI [µM]
COc1cc(Cl)cc(-c2nn(-c3cccc(NC(=O)c4cccc(C(F)(F)F)c4)c3)cc2-c2ccncc2)c1	> 100

test system: ACHN; assay: Growth inhibition of human ACHN cells assessed as cell growth at 0.01 uM incubated for 48 hrs by sulforhodamine B assay relative to control; assay type: functional; conditions: read-out: Activity

SMILES	growth at 0.01 µM [%]
COc1cc(Cl)cc(-c2nn(-c3cccc(NC(=O)c4cccc(C(F)(F)F)c4)c3)cc2-c2ccncc2)c1	98

test system: 786-0; assay: Growth inhibition of human 786-0 cells assessed as cell growth at 0.01 uM incubated for 48 hrs by sulforhodamine B assay relative to control; assay type: functional; conditions: 786-0, 48 h, read-out: Activity

SMILES	growth at 0.01 µM [%]
COc1cc(Cl)cc(-c2nn(-c3cccc(NC(=O)c4cccc(C(F)(F)F)c4)c3)cc2-c2ccncc2)c1	99

test system: NCI-H226; assay: Growth inhibition of human NCI-H226 cells incubated for 48 hrs by sulforhodamine B assay; assay type: functional, cell-based; conditions: NCI-H226, 48 h, read-out: GI50

SMILES	GI50 [µM]
COc1cc(Cl)cc(-c2nn(-c3cccc(NC(=O)c4cccc(C(F)(F)F)c4)c3)cc2-c2ccncc2)c1	> 100

same assay, conditions: NCI-H226, 48 h, read-out: LC50

SMILES	LC50 [µM]
COc1cc(Cl)cc(-c2nn(-c3cccc(NC(=O)c4cccc(C(F)(F)F)c4)c3)cc2-c2ccncc2)c1	> 100

same assay, conditions: NCI-H226, 48 h, read-out: TGI

SMILES	TGI [µM]
COc1cc(Cl)cc(-c2nn(-c3cccc(NC(=O)c4cccc(C(F)(F)F)c4)c3)cc2-c2ccncc2)c1	> 100

same assay, conditions: NCI-H226, 48 h, read-out: pGI50 (converted)

SMILES	GI50 [µM]
COc1cc(Cl)cc(-c2nn(-c3cccc(NC(=O)c4cccc(C(F)(F)F)c4)c3)cc2-c2ccncc2)c1	> 100

same assay, conditions: NCI-H226, 48 h, read-out: pLC50 (converted)

SMILES	LC50 [µM]
COc1cc(Cl)cc(-c2nn(-c3cccc(NC(=O)c4cccc(C(F)(F)F)c4)c3)cc2-c2ccncc2)c1	> 100

same assay, conditions: NCI-H226, 48 h, read-out: pTGI (converted)

SMILES	TGI [µM]
COc1cc(Cl)cc(-c2nn(-c3cccc(NC(=O)c4cccc(C(F)(F)F)c4)c3)cc2-c2ccncc2)c1	> 100

test system: COLO 205; assay: Growth inhibition of human COLO205 cells assessed as cell growth at 1 uM incubated for 48 hrs by sulforhodamine B assay relative to control; assay type: functional; conditions: COLO 205, 48 h, read-out: Activity

SMILES	growth at 1 µM [%]
COc1cc(Cl)cc(-c2nn(-c3cccc(NC(=O)c4cccc(C(F)(F)F)c4)c3)cc2-c2ccncc2)c1	94
